From patent US20240239854A1, “ANTIMICROBIAL PEPTIDES AND MODIFICATIONS THEREOF” (Donald Danforth Plant Science Center, priority 2022, published 2024)
In brackets after ≈: the same amount, converted by molar mass. Positions of bridges follow the written chain, without caps; N, C: chain ends. Non-standard residues stand in square brackets, D forms with d. Residues, ends and D or L forms follow the SMILES beside them. Dab = NCC[C@H](N)C(=O)O

Experiments:
[1] = test system: F. oxysporum; test: Antifungal MIC assay in SFM culture media (Example 1); assay type: cell-based; conditions: in vitro, low cationic conditions; F. oxysporum
[2] = test system: Candida auris; test: Antifungal MIC in RPMI medium; conditions: RPMI medium rich in cations
[3] = test system: F. graminearum; conditions: in vitro, low cationic conditions; F. graminearum
[4] = test system: Candida glabrata; test: Antifungal MIC in RPMI medium; conditions: RPMI medium rich in cations
[5] = test system: P. capsici; test: Antifungal MIC assay in SFM culture media (Example 1); assay type: cell-based; conditions: in vitro, low cationic conditions
[6] = test system: B. cinerea; conditions: for Antifungal activity relative to the wild-type GMA4C_AC control: in vitro, low cationic conditions
[7] = test system: Cercospora sojina; test: 96-well plate antifungal MIC, resazurin cell viability (Example 4); assay type: cell-based; conditions: Table 19; unit not given, peptide concentrations in μM
[8] = test system: Botrytis cinerea T-4; conditions: for MIC (μM) SFM: Table 18, SFM; for MIC (μM) (SFM + 2 mM CaCl2): Table 18, SFM + 2 mM CaCl2; for MIC (μM) (SFM + 100 mM KCl): Table 18, SFM + 100 mM KCl; for MIC (μM) (SFM + 100 mM NaCl): Table 18, SFM + 100 mM NaCl
[9] = test system: B. cinerea; test: Semi-in planta drop inoculation assay on detached leaves of N. benthamiana, gray mold (Example 4); assay type: in vivo; conditions: detached N. benthamiana leaves; for Reduction of gray mold disease symptoms (lesion sizes): peptide 1.5, 3 and 6 μM, 48 h after inoculation
[10] = test system: Alternaria alternata; test: 96-well plate antifungal MIC, resazurin cell viability (Example 4); assay type: cell-based; conditions: Table 19; unit not given, peptide concentrations in μM
[11] = test system: Colletotrichum gloeosporioides; test: as above; assay type: cell-based; conditions: Table 19; unit not given, peptide concentrations in μM
[12] = test system: Zymoseptoria tritici IPO323; assay type: cell-based
[13] = test system: B. cinerea; test: Pepper - Botrytis cinerea in planta spray assay, preventative and curative; assay type: in vivo; conditions: pepper plants
[14] = test system: Fusarium graminearum PH-1; assay type: cell-based; conditions: MIC Day 1; 96-well plate, resazurin cell viability
[15] = test system: Botrytis cinerea T4; assay type: cell-based

| Compound | Antifungal activity relative to the wild-type GMA4C_AC control [1] | Antifungal activity relative to the wild-type GMA4C_AC control [3] | Antifungal activity relative to the wild-type GMA4C_AC control [5] | Antifungal activity relative to the wild-type GMA4C_AC control ([6]; B. cinerea) | In vitro antifungal activity (MIC) Cercospora sojina [7] | MIC (μM) SFM [8] [µM] | MIC (μM) (SFM + 2 mM CaCl2) [8] [µM] | MIC (μM) (SFM + 100 mM KCl) [8] [µM] | MIC (μM) (SFM + 100 mM NaCl) [8] [µM] | In vitro antifungal activity (MIC) Alternaria alternata [10] | In vitro antifungal activity (MIC) Colletotrichum gloeosporioides [11] | other results |
| --- | --- | --- | --- | --- | --- | --- | --- | --- | --- | --- | --- | --- |
| CC[C@H](C)[C@H](NC(=O)[C@H](CCCNC(=N)N)NC(=O)[C@@H](NC(=O)[C@@H](NC(=O)[C@H](Cc1ccccc1)NC(=O)[C@@H](NC(=O)[C@H](CCCNC(=N)N)NC(=O)[C@H](CCCNC(=N)N)NC(=O)[C@H](CCCNC(=N)N)NC(=O)[C@H](Cc1ccccc1)NC(=O)CNC(=O)[C@H](CCCNC(=N)N)NC(=O)[C@H](CS)NC(=O)[C@H](CCCNC(=N)N)NC(=O)CNC(=O)CN)C(C)C)C(C)C)[C@@H](C)O)C(=O)N[C@@H](CS)C(N)=O [GMA4C_V3A] (H-GGRCRGFRRRVFVTRIC-NH2; N-terminus assumed) | equivalent | equivalent | equivalent | equivalent |  |  |  |  |  |  |  | Antifungal activity against C. auris [2]: show antifungal activity; Antifungal activity against C. glabrata [4]: show antifungal activity; B. cinerea MIC [6]: 1.5 µM; MIC (μM) Botrytis cinerea [6]: 3 µM (≈ 6.12 µg/mL); MIC Values (μM) against B. cinerea [6]: 3 µM (≈ 6.12 µg/mL); SFM + 2 mM CaCl2 MIC [6]: >6 µM; SFM + 100 mM KCl MIC [6]: >6 µM; SFM + 100 mM NaCl MIC [6]: 1.5 to 3 µM; SFM MIC [6]: 3 µM |
| N=C(N)NCCC[C@H](NC(=O)CNC(=O)[C@@H](N)Cc1ccccc1)C(=O)N[C@@H](CS)C(=O)N[C@@H](CCCNC(=N)N)C(=O)NCC(=O)N[C@@H](Cc1ccccc1)C(=O)N[C@@H](CCCNC(=N)N)C(=O)N[C@@H](CCCNC(=N)N)C(=O)N[C@@H](CCCNC(=N)N)C(=O)N[C@@H](CS)C(=O)N[C@@H](Cc1ccccc1)C(=O)N[C@@H](CS)C(=O)N[C@@H](Cc1c[nH]c2ccccc12)C(=O)N[C@@H](CCCNC(=N)N)C(=O)N[C@@H](Cc1c[nH]c2ccccc12)C(=O)N[C@@H](CS)C(N)=O [GMA4C_V4A] (H-FGRCRGFRRRCFCWRWC-NH2; N-terminus assumed) | equivalent | equivalent | equivalent | equivalent |  |  |  |  |  |  |  | Potency relative to GMA4C_AC in presence of cations ([6]; B. cinerea, 100 mM NaCl or 100 mM KCl): 2 fold; Fungal growth inhibition at 6 μM ([6]; B. cinerea, in presence of 2 mM CaCl2, peptide 6 μM): inhibit fungal growth |
| NCC[C@H](NC(=O)CNC(=O)[C@@H](N)Cc1ccccc1)C(=O)N[C@@H](CS)C(=O)N[C@@H](CCN)C(=O)NCC(=O)N[C@@H](Cc1ccccc1)C(=O)N[C@@H](CCN)C(=O)N[C@@H](CCN)C(=O)N[C@@H](CCN)C(=O)N[C@@H](CS)C(=O)N[C@@H](Cc1ccccc1)C(=O)N[C@@H](CS)C(=O)N[C@@H](Cc1c[nH]c2ccccc12)C(=O)N[C@@H](CCN)C(=O)N[C@@H](Cc1c[nH]c2ccccc12)C(=O)N[C@@H](CS)C(N)=O [GMA4C_V5A, FG(Dab)C(Dab)GF(Dab)(Dab)(Dab)CFCW(Dab)WC-NH2] (H-FG[Dab]C[Dab]GF[Dab][Dab][Dab]CFCW[Dab]WC-NH2; N-terminus assumed) | equivalent | equivalent | equivalent | equivalent |  |  |  |  |  |  |  |  |
| CC[C@H](C)[C@@H]1NC(=O)[C@H](CCCNC(=N)N)NC(=O)[C@H]([C@@H](C)O)NC(=O)[C@H](Cc2ccccc2)NC(=O)[C@H](Cc2c[nH]c3ccccc23)NC(=O)[C@H](Cc2ccccc2)NC(=O)[C@H](CCCNC(=N)N)NC(=O)[C@H](CCCNC(=N)N)NC(=O)[C@H](CC(C)C)NC(=O)[C@H](Cc2ccccc2)NC(=O)CNC(=O)[C@H](CCCCN)NC(=O)[C@@H](NC(=O)[C@H](CCCNC(=N)N)NC(=O)CNC(=O)CN)CSSC[C@@H](C(N)=O)NC1=O [GMA4C_V9] (H-GGRCKGFLRRFWFTRIC-NH2; disulfide 4-17; N-terminus assumed) |  |  |  |  | 6 | 3 (≈ 6.3 µg/mL) | 12 | 6 to 12 | 3 | >12 | >12 | Reduction of gray mold disease symptoms (lesion sizes) [9]: effective in reducing gray mold disease symptoms |
| CC[C@H](C)[C@@H]1NC(=O)[C@H](CCCNC(=N)N)NC(=O)[C@H]([C@@H](C)O)NC(=O)[C@H](Cc2c[nH]c3ccccc23)NC(=O)[C@H](Cc2ccc(O)cc2)NC(=O)[C@H](Cc2c[nH]c3ccccc23)NC(=O)[C@H](CCCNC(=N)N)NC(=O)[C@H](CCCNC(=N)N)NC(=O)[C@H](CCCNC(=N)N)NC(=O)[C@H](Cc2ccccc2)NC(=O)CNC(=O)[C@H](CCCCN)NC(=O)[C@@H](NC(=O)[C@H](CCCNC(=N)N)NC(=O)CNC(=O)CN)CSSC[C@@H](C(N)=O)NC1=O [GMA4C_V10] (H-GGRCKGFRRRWYWTRIC-NH2; disulfide 4-17; N-terminus assumed) |  |  |  |  | 6 | 3 (≈ 6.6 µg/mL) | 3 | 3 to 6 | 3 | >12 | >12 | Reduction of gray mold symptoms at low concentrations ([9]; peptide 1.5 μM and 3 μM): more effective in reducing the symptoms of gray mold than GMA4C_V9; Reduction of gray mold disease symptoms (lesion sizes) [9]: effective in reducing gray mold disease symptoms |
| C[C@H](NC(=O)CN)C(=O)N[C@H]1CSSC[C@@H](C(N)=O)NC(=O)[C@H](CCCCN)NC(=O)[C@H](CCCCN)NC(=O)[C@H](Cc2ccc(O)cc2)NC(=O)[C@H](Cc2c[nH]c3ccccc23)NC(=O)[C@H](Cc2ccccc2)NC(=O)[C@H](Cc2c[nH]c3ccccc23)NC(=O)[C@H](C)NC(=O)[C@H](Cc2ccccc2)NC(=O)CNC(=O)[C@H](Cc2ccccc2)NC(=O)CNC(=O)[C@H](CCC(N)=O)NC(=O)[C@H](CCCNC(=N)N)NC(=O)[C@H](Cc2c[nH]cn2)NC1=O [GMA5CA_V3] (H-GACHRQGFGFAWFWYKKC-NH2; disulfide 3-18; N-terminus assumed) |  |  |  |  | 6 | 3 (≈ 6.57 µg/mL) | >12 | >12 | >12 | 3 | >12 |  |
| C[C@H](NC(=O)CN)C(=O)N[C@H]1CSSC[C@@H](C(N)=O)NC(=O)[C@H](CCCCN)NC(=O)[C@H](CCCCN)NC(=O)[C@H](Cc2ccc(O)cc2)NC(=O)[C@H](Cc2ccccc2)NC(=O)[C@H](Cc2ccccc2)NC(=O)[C@H](Cc2ccccc2)NC(=O)[C@H](C)NC(=O)[C@H](Cc2ccccc2)NC(=O)CNC(=O)[C@H](Cc2ccccc2)NC(=O)CNC(=O)[C@H](CCC(N)=O)NC(=O)[C@H](CCCNC(=N)N)NC(=O)[C@H](Cc2c[nH]cn2)NC1=O [GMA5CA_V4] (H-GACHRQGFGFAFFFYKKC-NH2; disulfide 3-18; N-terminus assumed) |  |  |  |  | 6 | 3 (≈ 6.33 µg/mL) | >12 | >12 | >12 | 3 | >12 |  |
| PD122.1.1: Setaria italica wild-type defensin SEQ ID NO: 715 with an N-terminal alanine, expressed in Pichia pastoris (RRCVSQSHKFVGSCMRKSNCQHVCQTEGFPWGECRFHGGLLRRCFCNKLC; N-terminal alanine; listed as Setaria italica) |  |  |  |  |  |  |  |  |  |  |  | Z. tritici IPO323 MIC Day 1 [12]: 0.75 µM; Z. tritici IPO323 MIC Day 7 [12]: 2.5 µM; Z. tritici IPO323 MIC Day 14 [12]: 3 µM; Curative protection against gray mold disease ([13]; 24 μM spray 24 hours after B. cinerea spores, 5 dpi): reduction of gray mold disease symptoms; Preventative protection against gray mold disease ([13]; 24 μM spray 24 hours before B. cinerea spores, 96 hpi): reduction of gray mold disease symptoms; F. graminearum PH-1 MIC Day1 [14]: 1.5 µM; B. cinerea T4 MIC Day1 [15]: 0.75 µM |
